Measured values published in ChEMBL document CHEMBL1129599, “Quantitative structure-activity relationship study of fibrinogen inhibitors, [[4-(4-amidinophenoxy)butanoyl]aspartyl]valine (FK633) derivatives, using a novel hydrophobic descriptor” (J Med Chem, 1996).

Experiments:
[1] = The retention time in min (35 uM); type: ADME
[2] = The retention time in min (40 uM); type: ADME
[3] = Micelle/water partition coefficient; type: ADME; settings: buffer
[4] = The retention time in min (25 uM); type: ADME
[5] = The retention time in min (30 uM); type: ADME
[6] = biological target: T1, Integrin alpha-IIb/beta-3 (Homo sapiens, UniProt P05106+P08514); assay: Inhibition of binding to integrin alphaIIb-beta3; type: protein-complex assay
[7] = Inhibition of alphaIIb-beta3 integrin
[8] = biological target: T1, Integrin alpha-IIb/beta-3; assay: Inhibition of alphaIIb-beta3 integrin; type: protein-complex assay
[9] = Inhibition of binding to fibrinogen receptor

T1 sequence (P05106 27-788 limits assumed): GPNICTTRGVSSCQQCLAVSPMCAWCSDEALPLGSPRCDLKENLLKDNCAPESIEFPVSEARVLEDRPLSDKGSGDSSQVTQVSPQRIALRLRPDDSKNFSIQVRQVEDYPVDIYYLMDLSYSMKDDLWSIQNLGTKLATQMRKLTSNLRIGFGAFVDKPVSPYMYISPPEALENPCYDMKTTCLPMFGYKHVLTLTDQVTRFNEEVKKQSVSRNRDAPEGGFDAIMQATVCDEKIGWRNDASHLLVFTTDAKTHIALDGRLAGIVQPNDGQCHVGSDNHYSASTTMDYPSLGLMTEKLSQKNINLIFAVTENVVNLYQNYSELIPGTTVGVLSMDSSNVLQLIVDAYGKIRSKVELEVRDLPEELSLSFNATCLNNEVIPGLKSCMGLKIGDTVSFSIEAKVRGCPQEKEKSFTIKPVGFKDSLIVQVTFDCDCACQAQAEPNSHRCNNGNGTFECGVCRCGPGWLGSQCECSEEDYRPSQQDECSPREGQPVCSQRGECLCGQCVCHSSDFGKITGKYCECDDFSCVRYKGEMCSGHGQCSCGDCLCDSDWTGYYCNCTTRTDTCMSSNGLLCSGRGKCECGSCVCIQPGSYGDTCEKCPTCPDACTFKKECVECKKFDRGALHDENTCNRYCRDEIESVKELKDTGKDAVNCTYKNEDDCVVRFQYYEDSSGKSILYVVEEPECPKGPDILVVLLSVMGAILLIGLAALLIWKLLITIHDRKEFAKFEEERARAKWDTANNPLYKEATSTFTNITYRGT
T1 sequence (P08514 32-887 limits assumed): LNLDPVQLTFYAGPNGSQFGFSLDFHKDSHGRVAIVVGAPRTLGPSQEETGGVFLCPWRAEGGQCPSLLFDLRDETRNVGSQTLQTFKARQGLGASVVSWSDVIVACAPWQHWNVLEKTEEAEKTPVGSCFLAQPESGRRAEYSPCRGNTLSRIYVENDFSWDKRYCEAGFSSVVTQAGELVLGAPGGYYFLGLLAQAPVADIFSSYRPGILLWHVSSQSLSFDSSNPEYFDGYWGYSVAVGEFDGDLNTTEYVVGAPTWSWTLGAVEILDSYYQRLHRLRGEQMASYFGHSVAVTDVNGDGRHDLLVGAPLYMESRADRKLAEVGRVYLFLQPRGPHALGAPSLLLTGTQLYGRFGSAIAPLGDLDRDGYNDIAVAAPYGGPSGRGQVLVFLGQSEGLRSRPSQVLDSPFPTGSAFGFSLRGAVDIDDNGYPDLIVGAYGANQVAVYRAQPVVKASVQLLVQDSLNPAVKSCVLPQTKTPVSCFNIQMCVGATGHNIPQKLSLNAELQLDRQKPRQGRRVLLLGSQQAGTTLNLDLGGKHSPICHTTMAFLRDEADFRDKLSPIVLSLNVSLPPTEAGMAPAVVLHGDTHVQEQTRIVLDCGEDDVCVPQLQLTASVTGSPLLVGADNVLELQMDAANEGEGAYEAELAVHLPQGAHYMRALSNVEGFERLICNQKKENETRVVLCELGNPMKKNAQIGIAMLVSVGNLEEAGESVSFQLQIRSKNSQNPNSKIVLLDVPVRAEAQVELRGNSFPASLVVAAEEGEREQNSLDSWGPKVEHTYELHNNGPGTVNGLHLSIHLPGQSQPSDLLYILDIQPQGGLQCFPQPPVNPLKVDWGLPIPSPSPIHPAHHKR
T1 sequence (P08514 891-1039 limits assumed): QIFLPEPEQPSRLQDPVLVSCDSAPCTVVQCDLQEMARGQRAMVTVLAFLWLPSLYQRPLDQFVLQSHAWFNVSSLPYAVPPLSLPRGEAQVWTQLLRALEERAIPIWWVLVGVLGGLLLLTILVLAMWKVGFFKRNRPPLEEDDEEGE

Row | Compound | Retention time [1] [min] | Retention time [2] [min] | Log Pmw [3] | Retention time [4] [min] | Retention time [5] [min] | IC50 [6] [nM] | Log IC50 [7] | IC50 [8] [nM] | Log IC50 [9]
1 | COC(=O)[C@H](Cc1ccc(O)cc1)NC(=O)[C@H](CC(=O)O)NC(=O)CCCCOc1ccc(C(=N)N)cc1 | 15.56 | 14.28 | 2.09 | 20.18 | 17.31 | 4470 | – | – | –
2 | CN(C(=O)[C@H](CC(=O)O)NC(=O)CCCCOc1ccc(C(=N)N)cc1)[C@@H](Cc1ccc(O)cc1)C(=O)O | 14.24 | 12.91 | 2 | 17.87 | 15.67 | – | -6.57 | – | –
3 | CN(C(=O)[C@H](CC(=O)O)NC(=O)CCCOc1ccc(C(=N)N)cc1)[C@@H](Cc1ccc(O)cc1)C(=O)O | 11.82 | 10.91 | 1.96 | 14.85 | 13.01 | – | – | 129 | –
4 | CC(C)[C@H](NC(=O)[C@H](CC(=O)O)NC(=O)CCCCOc1ccc(C(=N)N)cc1)C(=O)O | 6.832 | 6.52 | 1.32 | 7.547 | 7.12 | – | -6.64 | – | –
5 | N=C(N)c1ccc(OCCCC(=O)N[C@@H](CC(=O)O)C(=O)N[C@@H](Cc2ccc(O)cc2)C(=O)O)cc1 | 8.79 | 8.23 | 1.74 | 10.54 | 9.51 | – | – | – | –
6 | N=C(N)c1ccc(OCCCCC(=O)N[C@@H](CC(=O)O)C(=O)N[C@@H](Cc2ccc(O)cc2)C(=O)O)cc1 | 10.57 | 9.72 | 1.82 | 12.79 | 11.47 | – | -6.19 | – | –

Continued, values first:

Row | Retention time [1] [min] | Retention time [2] [min] | Log Pmw [3] | Retention time [4] [min] | Retention time [5] [min] | IC50 [6] [nM] | Log IC50 [7] | IC50 [8] [nM] | Log IC50 [9] | Compound
7 | 8.25 | 7.826 | 1.47 | 9.413 | 8.773 | – | -6.85 | – | – | CC[C@H](C)[C@H](NC(=O)[C@H](CC(=O)O)NC(=O)CCCOc1ccc(C(=N)N)cc1)C(=O)O
8 | 12.06 | 11.19 | 1.59 | 14.11 | 12.96 | – | – | 229 | – | CC(C)(C)C[C@H](NC(=O)[C@H](CC(=O)O)NC(=O)CCCOc1ccc(C(=N)N)cc1)C(=O)O
9 | 3.238 | 3.199 | 0.904 | 3.324 | 3.269 | – | – | – | – | N=C(N)c1ccc(OCCCCC(=O)N[C@@H](CC(=O)O)C(=O)N[C@@H](CO)C(=O)O)cc1
10 | 5.347 | 5.207 | 1.29 | 5.898 | 5.545 | – | – | 110 | – | CC(C)[C@H](NC(=O)[C@H](CC(=O)O)NC(=O)CCCOc1ccc(C(=N)N)cc1)C(=O)O
11 | 8.25 | 7.826 | 1.47 | 9.413 | 8.773 | – | – | 135 | – | CC(C)C[C@H](NC(=O)[C@H](CC(=O)O)NC(=O)CCCOc1ccc(C(=N)N)cc1)C(=O)O
12 | 9.491 | 8.943 | 1.58 | 11.11 | 10.21 | – | – | – | -7.12 | CCCC[C@H](NC(=O)[C@H](CC(=O)O)NC(=O)CCCOc1ccc(C(=N)N)cc1)C(=O)O
